According to US8541442B2, “Indole derivatives as anticancer agents” (Janssen Pharmaceutica N.V., priority 2009, dated 2013):

How the values were obtained:
[1] = system: A2780 ovarian cancer cells; experiment: Alamar Blue cell proliferation assay, A2780; assay type: cell-based, human; conditions: 4-day incubation; for IC50: Homo sapiens, A2780, 96 h, read-out: A2780 cell proliferation inhibition pIC50 (converted)
Description: The human A2780 ovarian cancer cells were a kind gift from Dr. T. C. Hamilton (Fox Chase Cancer Centre, Pennsylvania, U.S.A.). The cells were cultured in RPMI 1640 medium supplemented with 2 mM L-Glutamine, 50 μg/ml gentamicin and 10% fetal calf serum.
Potassium Phosphate Buffer 0.1 M (PPB) was made as follows: 2.72 gram KH2PO4 and 13.86 gram K2HPO4 were dissolved in 500 ml milli-Q H2O, the pH was adjusted to pH 7.4 and the volume was brought to 1 liter with milli-Q H2O; the buffer was filter sterilised and stored at room temperature. Resazurin stock solution (PPB-A) was prepared fresh by dissolving 45 mg resazurin in 15 ml PBS. 30 mM potassium ferricyanide (PPB-B) was prepared by dissolving 0.987 gram potassium ferricyanide in 100 ml PPB. 30 mM potassium ferrocyanide (PPB-C) was prepared by dissolving 1.266 gram potassium ferrocyanide in 100 ml PPB.
Mixture of PPB-A, PPB-B and PPB-C was prepared by mixing equal volumes of the respective solutions. Resazurin work solution (herein termed “Alamar Blue” solution) was prepared by diluting said mixture 20×(vol/vol) in PPB and filter sterilising; the Alamar Blue solution could be kept at 4° C. for a maximum of 2 weeks.
(§1) For experiments in 384 wells plates the cells were seeded at a density of 5×10^3 cells/ml in Falcon 384-well culture plates (Life Technologies, Merelbeke, Belgium), black with clear bottom, in 45 μl culture medium. Cells were allowed to adhere to plastic for 24 hr. The tested compound was pre-diluted (1/50 in culture medium) and 5 μl pre-diluted compound was added to the wells. Following 4-day incubation, 10 μl of the Alamar Blue solution was added to each well and the cells were further incubated for 5 hrs (A2780) at 37° C. The fluorescence intensity was measured for each well with a Fluorescence plate reader (Fluorskan, Labsystems, 540 nm excitation and 590 nm emission)
(§2) The antiproliferative activity was calculated as percentage of remaining viable cells in treated versus control (untreated cells) conditions. Within an experiment, the result for each experimental condition is the mean of 3 replicate wells. When appropriate, the experiments were repeated to establish full concentration-response curves. When appropriate, IC50-values (concentration of the drug, needed to reduce cell growth to 50% of the control) were computed using probit analysis for graded data (Finney, D. J., Probit Analyses, 2nd Ed. Chapter 10, Graded Responses, Cambridge University Press, Cambridge 1962). Herein the effects of test compounds are expressed as pIC50 (the negative log value of the IC50-value (M)) (see Table 5A).

p53 in A2780 cells = experiment: p53 ELISA (preservation of p53 in A2780 cells); assay type: cell-based, human; conditions: 16 hours treatment; for minimal effective concentration: Homo sapiens, A2780, 16 h, read-out: p53-elisa LAD (lowest dose giving at least 140% of the value for p53 present in the control)
Description: The capacity of the present compounds to preserve p53 in A2780 cells was measured with the p53 enzyme linked immunosorbent assay. The p53 assay is a “sandwich” enzyme immunoassay employing two polyclonal antibodies. A polyclonal antibody, specific for the p53 protein, has been immobilized onto the surface of the plastic wells. Any p53 present in the sample to be assayed will bind to the capture antibody. The biotinylated detector polyclonal antibody also recognizes p53 protein, and will bind to any p53, which has been retained by the capture antibody. The detector antibody, in turn, is bond by horseradish peroxidase-conjugated streptavidin. The horseradish peroxidase catalyses the conversion of the chromogenic substrate o-phenylene diamine, the intensity of which is proportional to the amount of p53 protein bond to the plate. The colored reaction product is quantified using a spectrophotometer. Quantitation is achieved by the construction of a standard curve using known concentrations of purified recombinant HIS tagged p53 protein (see example C.1.).
A2780 cells (ATCC) were cultivated in RPMI 1640 supplemented with 10% fetal calf serum (FCS), 2 mM L-glutamine and gentamycin at 37° C. in a humidified incubator with 5% CO2.
A2780 cells were seeded at 20.000 cells per well in a 96 well plate, cultured for 24 hours and treated with compound for 16 hours at 37° C. in a humidified incubator. After incubation, the cells were washed once with phosphate-buffered saline and 30 μl, per well, low salt RIPA buffer (20 mM tris, pH7.0, 0.5 mM EDTA, 1% Nonidet P40, 0.5% DOC, 0.05% SDS, 1 mM PMSF, 1 μg/ml aprotinin and 0.5 μ/ml leupeptin) was added. Plates were placed on ice for 30 minutes to complete the lysis. p53 protein was detected in de lysates by using the sandwich ELISA, described below.
High binding polystyrene EIA/RIA 96 well plates (Costar 9018) were coated with the capture antibody pAb1801 (Abcam ab28-100) at a concentration of 1 μg/ml in coating buffer (0.1 M NaHCO3 pH8.2), 50 μl per well. The antibody was allowed to adhere overnight at 4° C. Coated plates were washed once with phosphate-buffered saline (PBS)/0.05% Tween 20 and 300 μl of blocking buffer (PBS, 1% bovine serum albumins (BSA)) was added, for an incubation period of 2 hours at room temperature. Dilutions of purified recombinant HIS tagged p53 protein, ranging from 3-200 ng/ml, were made in blocking buffer and used as standards.
Plates were washed twice with PBS/0.05% Tween 20 and blocking buffer or standards were added at 80 μl/well. To the standards, 20 μl of lysis buffer was added. The samples were added to the other wells at 20 μl lysate/well. After an overnight incubation at 4° C., plates were washed twice with PBS/0.05% Tween 20. Aliquots of 100 μl secondary polyclonal antibody p53(FL-393) (Tebubio, sc-6243) at a concentration of 1 μg/ml in blocking buffer were added to each well and allowed to adhere for 2 hours at room temperature. Plates were washed three times with PBS/0.05% Tween 20. Detection antibody anti-rabbit HRP (sc-2004, Tebubio) at 0.04 μg/ml in PBS/1% BSA was added and incubated for 1 hour at room temperature. Plates were washed three times with PBS/0.05% Tween 20 and 100 μl of substrate buffer was added (substrate buffer was prepared shortly before use by adding 1 tablet of 10 mg o-phenylene diamine (OPD) from Sigma and 125 μl 3% H2O2 to 25 ml OPD buffer: 35 mM citric acid, 66 mM Na2HPO4, pH5.6). After 5 to 10 minutes, colour reaction was stopped by adding 50 μl stop buffer (1 M H2SO4) per well. The absorbance at dual wavelengths of 490/655 nm was measured using a Biorad micro plate reader and the results were then analyzed.
For each experiment, controls (containing no drug) and a blank incubation (containing no cells or drugs) were run in parallel. The blank value was subtracted from all control and sample values. For each sample, the value of p53 (in absorbance units) was expressed as the percentage of the value for p53 present in the control. […]

[2] = system: non-small cell lung cancer cell line H1299; experiment: Alamar Blue cell proliferation assay, H1299; assay type: cell-based
Description: as §1, §2
(§3) Compounds were also tested according to the above protocol but using other cell lines: colorectal cancer cell line HCT116, non-small cell lung cancer cell line H1299, human prostate cancer cell line DU145.

[3] = system: colorectal cancer cell line HCT116; experiment: Alamar Blue cell proliferation assay, HCT116; assay type: cell-based; conditions: for IC50: Homo sapiens, HCT-116, HCT116 cells, read-out: HCT116 cell proliferation inhibition pIC50 (converted)
Description: as §1, §2, §3

[4] = system: human prostate cancer cell line DU145; experiment: Alamar Blue cell proliferation assay, DU145; assay type: cell-based; conditions: Homo sapiens, DU-145, DU145 cells; read-out: DU145 cell proliferation inhibition pIC50 (converted)
Description: as §1, §2, §3

Male NMRI mice = experiment: Ro-4-1284 antagonism in mice; assay type: in vivo; conditions: Ro-4-1284 antagonism test in mice
Description: The test is a modification of a procedure described by Colpaert et al. (1975).^3 Male NMRI mice (22±3 g) were housed in macrolon observation cages (L×W×H: 11×12×17 cm; n=3 per cage). At the start of the experiments immediately before test compound administration, the initial body temperature of the mice was measured with a precision of 0.1° C. by inserting the thermo-sensitive probe (1.0 mm diameter) of an electric thermometer (Comark) to a constant depth of 3 cm into the esophagus until a stable reading was obtained. The right eye pupil diameter was measured with a graduated microscope and expressed in 1/24 mm units. Fifteen min after test compound administration, the mice were challenged with Ro-4-1284 (10 mg/kg, s.c.). Ro-4-1284 is a reserpine-like vesicular monoamine transport (VMAT-2) inhibitor, which rapidly depletes secretory vesicles.^3,4 Fifteen, 30 and 60 min after challenge, the mice were scored for palpebral opening (0, 1, 2, 3, 4, 5) and locomotor activity (−1, 0, 1, 2, 3). At the 60-min interval, immediately after the scoring of overt behavior, the right eye pupil diameter and the esophageal temperature were measured again. Abnormal phenomena such as intensive sniffing, chewing, rearing, hyperemia, piloerection, salivation, tremors, convulsions and death were noted (the latter phenomena were also noted when occurring before Ro-4-1284 administration). Criteria for drug-induced effects: reversal of ptosis: palpebral opening score >1 at 15, 30 or 60 min (2.7, 0.5 and 0% false positive controls, respectively; n>350); induction of prostration: score −1 for locomotion at 15, 30 or 60 min (never observed in controls); reversal of hypomotility: score >0 for locomotion at 15, 30 and 60 min (2.2, 0.8 and 0% false positive controls, respectively); reversal of miosis: pupil diameter >5 units at 60 min (0.8% false positives); potentiation of hypothermia: temperature decrease (over the 1-h time interval)>9.0° C. (1.4% false positives); reversal of hypothermia: temperature decrease <3.0° C. (1.8% false positives).
According to the standard procedure, R0-4-1284 is injected 15 min following subcutaneous or oral administration and observations start 15 min later. Doses are initially given to 3 animals. When at least 2 out of the 3 animals show activity for at least one of the observations, the compound is considered active.

Cc1cc(Nc2ccnc3c2CCC3O)ccc1NCCc1c[nH]c2c(CCO)cccc12 (single isomer, unassigned) [Compound 13]
A2780 cell proliferation inhibition pIC50 [1]: 6.90 | p53-elisa LAD (lowest dose giving at least 140% of the value for p53 present in the control) (p53 in A2780 cells): 1.00 µM | H1299 cell proliferation inhibition pIC50 ([2]; H1299 cells): <5 | HCT116 cell proliferation inhibition pIC50 ([3]; HCT116 cells): 5.61

COC1CCc2c(Nc3ccc(NCCc4c[nH]c5c(C(C)(C)O)cccc45)cc3)ccnc21 (centres unmarked) [Compound 8]
IC50 [1]: 87.1 nM | minimal effective concentration (p53 in A2780 cells): 0.1 µM | IC50 [3]: 87.1 nM

C=Cc1ccc2c(CCNc3ccc(Nc4ccnc5c4CCC5O)cc3C)c[nH]c2c1 (centres unmarked) [Compound 14]
IC50 [1]: 372 nM | minimal effective concentration (p53 in A2780 cells): 1 µM | IC50 [4]: 7.24 µM | IC50 ([2]; Homo sapiens, NCI-H1299, H1299 cells, read-out: H1299 cell proliferation inhibition pIC50 (converted)): 3.98 µM | IC50 [3]: > 10000 nM

OC1CCc2c(Nc3ccc(NCCc4c[nH]c5ccccc45)cc3)ccnc21 (centres unmarked) [drawing 152, reference compound]
drug induced neurological side effects (Male NMRI mice): yes

OC1CCc2c(Nc3ccc(NCCc4c[nH]c5ccccc45)cc3)ccnc21 (centres unmarked) [drawing 153, reference compound]
drug induced neurological side effects (Male NMRI mice): yes

Cc1cc(Nc2ccncc2)ccc1NCCc1c[nH]c2ccccc12 [reference compound]
drug induced neurological side effects (Male NMRI mice): yes

c1ccc2c(CCNc3ccc(Nc4ccncc4)cc3)c[nH]c2c1 [reference compound]
drug induced neurological side effects (Male NMRI mice): yes

Cc1cccc2c(CCNc3ccc(Nc4ccncc4)cc3)c[nH]c12 [reference compound]
drug induced neurological side effects (Male NMRI mice): yes
